Experiments:
LecA [1] = target: T1, LecA (Pseudomonas aeruginosa, UniProt Q05097); experiment: Competitive binding assay for LecA based on fluorescence polarization; parameters: species or system P. aeruginosa
T1 construct: made in house; host or cells: E. coli (plasmid pET25-pail)
Procedure: The four thiols 17, 18, 24 and 25 as well as three disulfides 26a, 26b and 27 were then evaluated for their activity against LecA using a competitive binding assay based on fluorescence polarization (Fig. 4B). […]
Expression and purification of LasB and LecA
LecA was expressed recombinantly using E. coli pET25-pail, whereas LasB was isolated from P. aeruginosa PA14 culture supernatant as described previously. 1,2
LecA labeling with fluorescein was performed in analogy to Sommer et al. 3 and Beshr et al.4 To this end fluorescein isothiocyanate (FITC) was freshly dissolved in carbonate-bicarbonate buffer with pH of 9.3 at a concentration of 3 mg mL-1. Subsequently, 66 µL of this FITC solution was combined with 1.4 mL of LecA at a concentration of 60 µM in carbonate-bicarbonate buffer, pH 9.3. The resulting mixture was then incubated at 25 °C with shaking at 500 rpm for 1 hour. Then, extensive washing with PBS/Ca2+ in a 5 kDa molecular weight cutoff centrifugal concentrator was performed to remove excess dye and buffer the labelled protein. […]
Competitive binding assay for LecA
The procedure for the fluorescence polarization-based competitive binding assay for LecA was performed as reported by Joachim et al. with modifications. 1 The assay was performed in TBS/Ca2+ buffer (20 mM Tris, 137 mM NaCl, 2.6 mM KCl at pH 7.4 supplemented with 1 mM CaCl 2 and contained 5% DMSO). The final protein concentration in the assay was 5 µM for LecA. Fluorescence intensities were recorded on a PheraStar FS plate reader (BMG Labtech GmbH, Germany) and polarization was calculated using MARS Data Analysis (BMG Labtech).
IC50 values were obtained from a four-parameter curve-fitting procedure. Averages and standard deviations were calculated from at least three independent experiments of technical

LecA [2] = target: T1, LecA; experiment: Surface plasmon resonance direct LecA binding assay (immobilized LecA); parameters: species or system P. aeruginosa
Excerpt: Therefore, we measured the LecA affinity of thiol derivatives 17, 18, 24 and 25 and disulfides 26a, 26b and 27 using surface plasmon resonance (SPR) with LecA covalently immobilized on a sensor chip via amide coupling (Fig. 5 and Table 1). […] Thiols 17, 18, 24 and 25 reached equilibrium binding within 60 s of interaction with immobilized LecA, followed by their dissociation with moderate off-rates. […] Due to the very small off-rates for 26a, 26b and 27, these values have been calculated based on the response at […] of the injected compound and monitoring their dissociation for 30 min (Fig. S2 ^†). The observed very tight binding to immobilized LecA required optimization of the protein surface regeneration procedure. Effective conditions were identified as one injection of 50 mm isopropyl β-D-thiogalactoside in the running buffer, followed by one injection of 20 mm EDTA disodium salt in water. The regenerated chip surface was controlled using an injection of 1 to ensure that the activity of LecA was maintained.
Surface plasmon resonance direct LecA binding assay
SPR experiments were performed on a Reichert 2-channel SPR SR7500DC (Reichert Technologies Life Sciences, Buffalo, NY, USA) at 25 °C. For LecA immobilization, the surface of a HC1000M sensor chip (XanTec bioanalytics GmbH, Düsseldorf, Germany) was preequilibrated with borate buffer (1 M NaCl, 0.1 M sodium borate pH 9.0), followed by activation of the polycarboxylate hydrogel with 0.2 M N-hydroxysuccinimide (NHS) and 0.4 M 1-ethyl-3-(3-dimethylaminopropyl)carbodiimide hydrochloride (EDC‧HCl) in MilliQ water in both channels for 240 s (flow rate 10 μL/min) until the binding response reached 1200 RU.
Then, LecA (100 μg/mL) in 10 mM sodium acetate pH 3.6 was injected on the activated chip surface of one channel (injection time 420 s, flow rate 10 μL/min) and 6000 RU of LecA were immobilized. Unreacted NHS esters in both channels were blocked with 1 M ethanolamine hydrochloride in MilliQ water pH 8.5 (injection time 360 s, flow rate 10 μL/min).
Test compound stock solutions were prepared in DMSO (20 mM stocks for monovalent LecA inhibitors, 20 µM stocks for divalent LecA inhibitors) and were subsequently diluted in 10 mM phosphate buffer (pH 7.4, 2.7 mM KCl, 137 mM NaCl, 100 μM CaCl2) to obtain solutions with […]
Monovalent inhibitors 17, 18, 24 and 25 were injected for 120 s (flow rate 50 μL/min) at concentrations ranging from 0.39–100 µM. Divalent inhibitors 26a, 26b and 27 were injected for 120 s (flow rate 50 μL/min) at concentrations 50–350 nM. The chip surface was regenerated after each inhibitor injection by one injection of 50 mM IPTG in running buffer (10 mM phosphate buffer, pH 7.4, 2.7 mM KCl, 137 mM NaCl, 100 μM CaCl2, 2% DMSO) followed by one injection 20 mM EDTA disodium salt in MilliQ water, and then followed by three injections of the running buffer (injection time 120 s, flow rate 50 μL/min). 100 µM pNP-Gal (1) in running buffer was injected before each analyte to monitor and ensure chip regeneration and […]
Affinity/equilibrium analysis was performed for 1 on the same chip. A stock solution of 1 (10 mM in PBS/CaCl2 buffer) was prepared, then diluted to the required concentrations in running buffer and injected at 1.56–400 µM (injection time 60 s, flow rate 50 μL/min) without regeneration steps. Data analysis was performed using TraceDrawer software (Ridgeview Instruments) using a 1:1 binding model to fit the experimental data. Spikes at the end of the injections were removed in TraceDrawer during the data analysis.

Kinetic solubility = format: physicochemical; settings: aqueous buffer, kinetic from dmso stock; 10 mm PBS with 2% DMSO at 37 °C

T1 sequence (Q05097 whole entry): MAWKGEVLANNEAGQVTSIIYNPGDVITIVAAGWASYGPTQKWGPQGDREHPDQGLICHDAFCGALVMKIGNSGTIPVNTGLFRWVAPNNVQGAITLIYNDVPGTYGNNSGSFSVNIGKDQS

**Q.** For CC(C)CC(SSC(CC(C)C)C(=O)Nc1ccc(S[C@@H]2O[C@H](CO)[C@H](O)[C@H](O)[C@H]2O)cc1)C(=O)Nc1ccc(S[C@@H]2O[C@H](CO)[C@H](O)[C@H](O)[C@H]2O)cc1 (some centres unmarked) [Compound 27], which IC50 (LecA [1]) is on record?
**A.** 5700 nM

**Q.** And the Kd (LecA [2])?
**A.** 4.5 ± 0.4 nM

**Q.** What about the k a (LecA [2]; SPR, immobilized LecA) of the same compound?
**A.** 5.2 ± 0.6 ×10^4 M^−1 s^−1

**Q.** What about the k d (LecA [2]; SPR, immobilized LecA) of the same compound?
**A.** 2.2 ± 0.3 ×10^−4 s^−1

**Q.** What about the solubility kinetic (Kinetic solubility) of the same compound?
**A.** > 600 µM

Source: article PMC11339798, “Dual inhibitors of Pseudomonas aeruginosa virulence factors LecA and LasB” (Chemical Science, 2024)
